Measured values: patent publication US11440880B2, “Thalidomide analogs and methods of use” (The USA, as represented by the Secretary, Department of …, priority 2015, dated 2022)

Assays:
[1] = test system: fli1:EGFP zebrafish embryos (intersegmental vessel growth); assay: fli1:EGFP zebrafish embryo angiogenesis assay; format: in vivo; design: fli1:EGFP angiogenesis n (survived/tested): concentration or dose not given beside the values; conditions: for minimal effective concentration: Danio rerio, lowest concentration producing an effect, compounds not producing an effect shown at the highest evaluated concentration; for fli1:EGFP angiogenesis n (survived/tested): embryos alive after 24 hours of exposure
Text: Zebrafish embryology: The use of zebrafish embryo (Danio rerio) bioassays as a preclinical model in the classification of novel compounds has increased in recent years due to several factors including; low cost, ease of maintenance, speed of embryonic development, transparency of the embryos and genetic conservation between zebrafish and humans (Howe et al., Nature 2013; 496:498; Therapontos et al., PNAS 2009, 106:8573; Mahony et al., PNAS 2013, 110:12703; Beedie et al., Oncotarget 2016, 7(22):33237; Beedie et al., Mol. Cancer Ther. 2015, 14(10):2228). Two established zebrafish reporter lines were used—the fli1:EGFP line, where the fli1 promoter drives expression of enhanced green fluorescent protein within the developing vasculature (Lawson et al., 2002), and the Tg(mpo::EGFP) line (also known as mpo:GFP), which expresses green fluorescent protein via the neutrophil specific myeloperoxidase promoter (Renshaw et al., Blood 2006, 108:3976). The use of these zebrafish transgenic reporter lines allows for the identification of potential anti-angiogenic and anti-inflammatory compounds respectively, and both have been used previously to successfully classify the action of thalidomide analogs (Therapontos et al., 2009; Mahony et al., 2013; Beedie et al., Oncotarget 2016, 7(22):33237; Beedie et al., Mol. Cancer Ther. 2015, 14(10):2228). Zebrafish embryos were treated with analogs as previously described (Mahony et al., 2013). Briefly, fli1:EGFP embryos were collected and embryos were allowed to develop for 24 hours. Embryos were dechorionated manually and exposed to test compounds or vehicle control for a further 24 hours, imaged and analyzed for intersegmental vessel (ISV) growth. At 24 hours post fertilisation (hpf) the ISVs were ideal to study to visualize and analyze the actions of compounds on angiogenesis. At this time point ISVs were rapidly forming beneath the developing head, over the body and had yet to form in the tail (Lawson and Weinstein, Developmental Biology 2002, 248:307; Therapontos and Vargesson, Developmental Dynamics 2010, 239:2761). Additionally, these sprouts would go on to form the bilateral dorsal longitudinal anastomotic vessels. By treating before this fusion and formation occurs, the effect of each compound on the individual vessels as well as overall patterning structural integrity (Isogai et al., Development 2003, 130:5281) could be determined. Tg(mpo::EGFP) were tail fin clipped as previously detailed (Renshaw et al., 2006; Mahony et al., 2013; Beedie et al., Oncotarget 2016, 7(22):33237; Beedie et al., Mol. Cancer Ther. 2015, 14(10):2228) and incubated with test compounds or vehicle control at 72 hours post fertilization. Fish were imaged at 24 hours and the number of migratory neutrophils present at the wound site were counted. Compounds inducing an at least 50% reduction of neutrophils to the wound site were considered to have anti-inflammatory properties in this system. All larvae were assessed for viability and morphological integrity.
To determine if the thalidomide analogs had any effect on angiogenesis, fli1:EGFP embryos (Lawson and Weinstein, Developmental Biology 2002, 248:307-318) were exposed to either vehicle or a compound of interest, over a range of concentrations and over a range of time points starting at 24 hpf. Images were obtained at three time points over 24 hours after exposure to the compounds. The best concentration and time point were selected. CPS49, a compound that is chemically and structurally similar to thalidomide breakdown products, and is tetrafluorinated (which adds stability and bioactivity to the compound) and that causes severe limb defects in chicken embryos, was used as a positive control. The embryos were imaged at 48 hpf (FIGS. 3A3L) and analyzed for both vessel formation and the extent of growth of the vasculature. […]

[2] = test system: RAW 264.7 cells; assay: Cell viability (CellTiter 96 AQueous One) of LPS-challenged RAW 264.7 cells; format: cell-based, mouse; design: key: NS=not significant; a “+” sign=anti-inflammatory or increased cell numbers; a “−” sign=cell toxicity or pro-inflammatory
Method: The CellTiter 96® AQueous One Solution Cell Proliferation Assay (Promega, Madison, Wis.) is routinely used as an assay of cell proliferation, and was used according to the manufacturer's recommendations. Changes in cellular health status are determined by use of indirect measures related to the formation of a colored tetrazolium dye product that can be measured spectrophotometrically at 490 nm λ. […] Optical densities (expressed as O.D.s) were measured after various incubations.
(§1) RAW 264.7 cells obtained from ATCC (Manassas, Va., USA) were grown in DMEM media supplemented with 10% FCS, penicillin 100 μg/ml and streptomycin 100 μg/ml, and maintained at 37° C. and 5% CO2. Cells were seeded in 24 well plates and, 24 hours later, were utilized in studies. One hour prior to the initiation of any study, the seeding media was replaced with fresh media (1 mL), and the cells were allowed to equilibrate at 37° C. and 5% CO2.
(§2) RAW 264.7 cells were challenged with LPS (Sigma, St Louis, Mo.: serotype 055:B5) from at a final concentration of 30 or 60 ng/mL. This concentration of LPS in RAW 264.7 cells induces a sub-maximal rise in both TNF-alpha and nitrite levels without a loss in cellular viability. This sub-maximal rise is useful for assessing whether the addition of an experimental drug can either lower or further raise levels of TNF-α and nitrite. Twenty four hours following the addition of LPS, conditioned media was harvested and analyzed for quantification of secreted TNF-α protein and nitrite levels. Fresh media was replaced into the wells and cell viability was then assessed.
(§3) Thalidomide and analogs were prepared in tissue culture grade DMSO (Sigma). RAW 264.7 cells were pretreated with thalidomide, analogues or vehicle one hour prior to a challenge with LPS. The effects of various concentrations of thalidomide analogues were assessed. All compounds were synthesized to a chemical purity of >99.5%, as assessed by chemical characterization by a combination of 1H NMR, 13C NMR and GC/MS analyses (Bruker AC-300 spectrometer, together with elemental analyses (Atlantic Microlab, Inc., Norcross, Ga.).

[3] = test system: TNF-α protein; assay: TNF-α protein level (ELISA) in LPS-challenged RAW 264.7 cells; format: cell-based, mouse; design: key: NS=not significant; a “+” sign=anti-inflammatory or increased cell numbers; a “−” sign=cell toxicity or pro-inflammatory; conditions: LPS 30 or 60 ng/mL, 24 h
Method: (§4) Nitrite levels in the culture media were measured by use of the Griess Reagent System (Promega, Madison, Wis.), following the manufacturer's protocol. The O.D. of unknown samples was read at 520 nm λ, compared to a sodium nitrite standard curve (1.5 μM to 100 μM) and nitrite measured media concentrations expressed as μM units. As the lowest nitrite concentration on the Griess Reagent System standard curve was 1.5 μM, this was chosen as the effective cutoff for defining measurable nitrite concentrations. TNF-α protein levels were measured by use of an ELISA specific for mouse TNF-α protein (BioLegend, San Diego, Calif.) and are expressed as a % change from their appropriate control or as pg/ml.
as §1, §2, §3

[4] = test system: nitrite levels in the culture media; assay: Nitrite level (Griess Reagent System) in LPS-challenged RAW 264.7 cells; format: cell-based, mouse; design: key: NS=not significant; a “+” sign=anti-inflammatory or increased cell numbers; a “−” sign=cell toxicity or pro-inflammatory; conditions: LPS 30 or 60 ng/mL, 24 h
Method: as §4, §1, §2, §3

Row | Structure (SMILES) | anti-angiogenic effect (loss of ISVs or inhibition of ISV outgrowth) ([1]; in words) | Viability ([2]; 1 μM) | Viability ([2]; 10 μM) | Viability ([2]; 30 μM) | TNF-α ([3]; 1 μM) | TNF-α ([3]; 10 μM) | TNF-α ([3]; 30 μM) | Nitrite ([4]; 1 μM) | Nitrite ([4]; 10 μM) | Nitrite ([4]; 30 μM) | minimal effective concentration [1] | fli1:EGFP angiogenesis n (survived/tested) [1] | Viability ([2]; 60 μM) | TNF-α ([3]; 60 μM) | Nitrite ([4]; 60 μM)
1 | O=C1c2c(F)c(F)c(F)c(F)c2C(=O)N1c1ccc(F)cc1F [CPS49, reference compound] | decrease in blood vessel length |  |  |  |  |  |  |  |  |  |  |  |  |  | 
2 | CC(N1Cc2c(cccc2[N+](=O)[O-])C1=S)C12CC3CC(CC(C3)C1)C2 (stereo not shown) [Compound 89] |  | NS | NS | − | NS | NS | NS | NS | + | + | 10 µg/mL | 7/11 |  |  | 
3 | C[C@H]1[C@H](N2Cc3c(N)cccc3C2=O)C[C@@H]2C[C@H]1C2(C)C [Compound 91] |  | NS | + | + | NS | + | + | + | + | + | 10 µg/mL | 5/18 |  |  | 
4 | C[C@@H]1[C@@H](N2Cc3c(N)cccc3C2=O)C[C@H]2C[C@@H]1C2(C)C [Compound 93] |  | NS | NS | NS | NS | NS | NS | NS | NS | + | 10 µg/mL | 8/10 |  |  | 
5 | CC1(C)[C@@H]2CC[C@H](CN3Cc4c(N)cccc4C3=O)[C@H]1C2 [Compound 104] |  | NS | NS | NS | NS | NS | NS | − | − | − |  |  |  |  | 
6 | C[C@@H]1[C@@H](N2C=C3C(=CC=C/C3=N\OO)C2=O)C[C@H]2C[C@@H]1C2(C)C [Compound 105] |  | NS | NS | − | NS | NS | + | NS | + | + |  |  |  |  | 
7 | CC1(C)[C@@H]2CC[C@H](CN3C(=O)C4CC=CCC4C3=O)[C@H]1C2 (stereo partly shown) [Compound 112] |  |  | − | − |  | NS | + |  | NS | + |  |  | − | + | +
8 | CC1(C)[C@@H]2CC[C@H](CN3C(=O)C4C5C=CC(C5)C4C3=O)[C@H]1C2 (stereo partly shown) [Compound 113] |  |  | − | − |  | NS | + |  | NS | + |  |  | − | + | +
9 | CC1(C)[C@@H]2CC[C@H](CN3C(=O)C4C5C=CC(C5)C4C3=O)[C@H]1C2 (stereo partly shown) [Compound 114] |  |  | − | − |  | + | + |  | + | + |  |  | − | + | +
10 | CC1(C)[C@@H]2CC[C@]1(C)[C@@H](N1C(=O)C3CC=CCC3C1=O)C2 (stereo partly shown) [Compound 115] |  |  | − | − |  | + | + |  | + | + |  |  | − | + | +
11 | CC1(C)[C@@H]2CC[C@@]1(C)[C@@H](N1C(=O)C3C4C=CC(C4)C3C1=O)C2 (stereo partly shown) [Compound 116] |  |  | − | − |  | NS | NS |  | NS | NS |  |  | NS | NS | NS
12 | CC1(C)[C@@H]2CC[C@]1(C)[C@@H](N1C(=O)C3C4C=CC(C4)C3C1=O)C2 (stereo partly shown) [Compound 117] |  |  | − | − |  | + | + |  | + | + |  |  | − | + | +
13 | C[C@H]1[C@H](N2C(=O)C3CC=CCC3C2=O)C[C@@H]2C[C@H]1C2(C)C (stereo partly shown) [Compound 118] |  |  | − | − |  | + | + |  | + | + |  |  | − | + | +
14 | C[C@H]1[C@H](N2C(=O)C3C4C=CC(C4)C3C2=O)C[C@@H]2C[C@H]1C2(C)C (stereo partly shown) [Compound 119] |  |  | − | − |  | + | + |  | + | + |  |  | − | + | +
